Peptide text beside a SMILES is read from it. * marks the point of attachment. Lauroyl = CCCCCCCCCCCC(=O)*
Key:
Format in all cases: cell-based
[1] = system: pig erythrocytes
Summary of the method: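 Washed pig erythrocytes in PBS were mixed with 2-fold serial dilutions of peptide and incubated for 1 h at 37° C. Released hemoglobin in the supernatant was read at 570 nm, with PBS and 0.1% Triton X-100 as controls. MHC was the minimum concentration giving 5% hemolysis.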

[2] = system: A. baumannii CAN-ICU 63169
Summary of the method: (§1)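 CLSI microbroth dilution; MHB; inoculum 5×10^5 CFU/mL from 0.5 McFarland suspension diluted 1:50; 2-fold compound series; 37° C., 18 h; MIC = lowest concentration without visible growth, checked at 590 nm.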

[3] = system: E. coli CANWARD-2011 97615 (gentamicin-, tobramycin-, ciprofloxacin-resistant) aac(3′)iia
Summary of the method: as §1

[4] = system: E. coli CAN-ICU 63074 (amikacin-intermediate resistant)
Summary of the method: as §1

With `CCCCCCCCCCCC(=O)N1CCC[C@H]1C(=O)N[C@@H](CCCNC(=N)N)C(=O)N1CCC[C@H]1C(=O)N[C@@H](CCCNC(=N)N)C(=O)N1CCC[C@H]1C(=O)N[C@@H](CCCNC(=N)N)C(=O)N1CCC[C@H]1C(N)=O` [Compound C12-PRP, CH3(CH2)10CO-PRPRPRP-NH2] (Lauroyl-PRPRPRP-NH2) the “MHC (minimum concentration that resulted in 5% red blood cell hemolysis)” value [1] was over 512 µg/mL, the hemolysis ([1]; red cells of porcine, 512 μg/mL) was 4.6±0.2% and the MIC [2] was over 128 µg/mL. The MIC [3] was over 128 µg/mL and the MIC [4] was over 128 µg/mL.

Reference: patent publication US20200407398A1, “Short Proline-Rich Lipopeptide Potentiates Minocycline and Rifampicin Against Multidrug-and Extensively Drug-Resistant Pseudomonas Aeruginosa” (priority 2018, published 2020)
